Laboratory results from ChEMBL document CHEMBL1152093, “The effect of propargylic substitution on the activation and aromatization of enediynes” (Bioorg Med Chem Lett, 1994).

Legend:
Mus musculus [1] = test: Compound was tested in vivo in mice against Madison 109 lung carcinoma cell line (M109) in a pretreated group over a control group at 64 mg/kg/inj; assay type: functional
HCT-116 = test: In vitro cytotoxicity against 116 human colon tumor cell line (HCT116); assay type: functional, cell-based
Mus musculus [2] = test: Compound was tested in vivo in mice against Madison 109 lung carcinoma cell line (M109) in a pretreated group over a control group at 32 mg/kg/inj; assay type: functional
Mus musculus [3] = test: Compound was tested in vivo in mice against Madison 109 lung carcinoma cell line (M109) in a pretreated group over a control group at 128 mg/kg/inj; assay type: functional
Mus musculus [4] = test: Compound was tested in vivo in mice against Madison 109 lung carcinoma cell line (M109) in a pretreated group over a control group at 16 mg/kg/inj; assay type: functional

| Structure (SMILES) | T/C (Mus musculus [1]) [%] | IC50 (HCT-116) [µM] | T/C (Mus musculus [2]) [%] | T/C (Mus musculus [3]) [%] | T/C (Mus musculus [4]) [%] |
| --- | --- | --- | --- | --- | --- |
| CC(C)(C)[Si](C)(C)O[C@@]12C#C/C=C\C#C[C@@H](OC(=O)COc3ccccc3)C(=CCC1)C2=O | 143 | 0.19 | – | – | – |
| CC(C)(C)[Si](C)(C)O[C@@]12C#C/C=C\C#C[C@@H](F)C(=CCC1)C2=O | – | 0.024 | 112 | – | – |
| CC(C)(C)[Si](C)(C)O[C@@]12C#C/C=C\C#C[C@H](O)C(=CCC1)C2=O | – | > 2 | – | 115 | – |
| CC(C)(C)[Si](C)(C)O[C@@]12C#C/C=C\C#C[C@@H](O)C(=CCC1)C2=O | – | 0.1 | – | – | 144 |
| CC(C)(C)[Si](C)(C)O[C@@]12C#C/C=C\C#CCC(=CCC1)C2=O | – | > 2 | – | – | – |
